Assay results as given in PMC10838953.

How the values were obtained:
EGFR(L858R,T790M) = EGFR(L858R,T790M) (Homo sapiens, UniProt P00533, L858R/T790M); experiment: biochemical; settings: read-out: %Ctrl @ 2000nM
TNK2 = TNK2 (Homo sapiens, UniProt Q07912); experiment: biochemical; settings: read-out: %Ctrl @ 2000nM
[1] = test system: RPTEC (renal proximal tubule epithelial cells); experiment: cells; settings: Homo sapiens, read-out: IC50 cell viability
PKN2 = PKN2 (Homo sapiens, UniProt Q16513); experiment: biochemical; settings: read-out: %Ctrl @ 2000nM
PKN2, sequence (Q16513 whole entry): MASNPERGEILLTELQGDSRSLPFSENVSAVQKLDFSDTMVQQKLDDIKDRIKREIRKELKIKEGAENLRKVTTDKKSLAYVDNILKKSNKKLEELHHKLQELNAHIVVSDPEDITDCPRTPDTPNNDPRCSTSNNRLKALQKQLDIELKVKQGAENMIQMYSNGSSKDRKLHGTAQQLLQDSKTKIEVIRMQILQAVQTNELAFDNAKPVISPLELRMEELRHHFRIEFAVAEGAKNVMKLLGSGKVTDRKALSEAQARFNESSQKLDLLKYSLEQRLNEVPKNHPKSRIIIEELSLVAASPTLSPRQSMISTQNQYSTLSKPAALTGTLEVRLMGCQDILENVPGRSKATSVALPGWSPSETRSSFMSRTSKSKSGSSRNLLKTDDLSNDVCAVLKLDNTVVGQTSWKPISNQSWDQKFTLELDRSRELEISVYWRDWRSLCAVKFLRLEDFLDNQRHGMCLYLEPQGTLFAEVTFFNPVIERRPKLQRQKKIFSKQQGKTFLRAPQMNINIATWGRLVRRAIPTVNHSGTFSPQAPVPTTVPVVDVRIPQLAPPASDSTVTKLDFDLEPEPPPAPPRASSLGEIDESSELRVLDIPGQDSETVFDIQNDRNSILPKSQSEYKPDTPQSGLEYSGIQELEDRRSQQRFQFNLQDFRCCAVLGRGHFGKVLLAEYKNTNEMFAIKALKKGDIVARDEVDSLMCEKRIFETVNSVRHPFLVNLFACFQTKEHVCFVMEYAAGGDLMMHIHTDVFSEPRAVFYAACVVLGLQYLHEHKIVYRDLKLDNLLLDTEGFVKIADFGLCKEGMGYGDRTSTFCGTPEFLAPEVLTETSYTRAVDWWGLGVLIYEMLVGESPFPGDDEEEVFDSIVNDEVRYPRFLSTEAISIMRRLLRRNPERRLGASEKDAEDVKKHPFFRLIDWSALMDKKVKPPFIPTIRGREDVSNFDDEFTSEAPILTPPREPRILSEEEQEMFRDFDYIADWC

[2] = target: ABL1(F317L)-nonphosphorylated (Homo sapiens, UniProt P00519, F317L); experiment: biochemical; settings: read-out: %Ctrl @ 2000nM
TAOK2 = TAOK2 (Homo sapiens, UniProt Q9UL54); experiment: biochemical; settings: read-out: %Ctrl @ 2000nM
PLK4 = PLK4 (Homo sapiens, UniProt O00444); experiment: biochemical; settings: read-out: %Ctrl @ 2000nM
WNK1 = WNK1 (Homo sapiens, UniProt Q9H4A3); experiment: biochemical; settings: read-out: %Ctrl @ 2000nM
PLK3 = PLK3 (Homo sapiens, UniProt Q9H4B4); experiment: biochemical; settings: read-out: %Ctrl @ 2000nM
MET(M1250T) = MET(M1250T) (Homo sapiens, UniProt P08581, M1250T); experiment: biochemical; settings: read-out: %Ctrl @ 2000nM
EGFR(L858R) = EGFR(L858R) (Homo sapiens, UniProt P00533, L858R); experiment: biochemical; settings: read-out: %Ctrl @ 2000nM
EGFR(L858R), sequence (P00533 25-1210 L858R): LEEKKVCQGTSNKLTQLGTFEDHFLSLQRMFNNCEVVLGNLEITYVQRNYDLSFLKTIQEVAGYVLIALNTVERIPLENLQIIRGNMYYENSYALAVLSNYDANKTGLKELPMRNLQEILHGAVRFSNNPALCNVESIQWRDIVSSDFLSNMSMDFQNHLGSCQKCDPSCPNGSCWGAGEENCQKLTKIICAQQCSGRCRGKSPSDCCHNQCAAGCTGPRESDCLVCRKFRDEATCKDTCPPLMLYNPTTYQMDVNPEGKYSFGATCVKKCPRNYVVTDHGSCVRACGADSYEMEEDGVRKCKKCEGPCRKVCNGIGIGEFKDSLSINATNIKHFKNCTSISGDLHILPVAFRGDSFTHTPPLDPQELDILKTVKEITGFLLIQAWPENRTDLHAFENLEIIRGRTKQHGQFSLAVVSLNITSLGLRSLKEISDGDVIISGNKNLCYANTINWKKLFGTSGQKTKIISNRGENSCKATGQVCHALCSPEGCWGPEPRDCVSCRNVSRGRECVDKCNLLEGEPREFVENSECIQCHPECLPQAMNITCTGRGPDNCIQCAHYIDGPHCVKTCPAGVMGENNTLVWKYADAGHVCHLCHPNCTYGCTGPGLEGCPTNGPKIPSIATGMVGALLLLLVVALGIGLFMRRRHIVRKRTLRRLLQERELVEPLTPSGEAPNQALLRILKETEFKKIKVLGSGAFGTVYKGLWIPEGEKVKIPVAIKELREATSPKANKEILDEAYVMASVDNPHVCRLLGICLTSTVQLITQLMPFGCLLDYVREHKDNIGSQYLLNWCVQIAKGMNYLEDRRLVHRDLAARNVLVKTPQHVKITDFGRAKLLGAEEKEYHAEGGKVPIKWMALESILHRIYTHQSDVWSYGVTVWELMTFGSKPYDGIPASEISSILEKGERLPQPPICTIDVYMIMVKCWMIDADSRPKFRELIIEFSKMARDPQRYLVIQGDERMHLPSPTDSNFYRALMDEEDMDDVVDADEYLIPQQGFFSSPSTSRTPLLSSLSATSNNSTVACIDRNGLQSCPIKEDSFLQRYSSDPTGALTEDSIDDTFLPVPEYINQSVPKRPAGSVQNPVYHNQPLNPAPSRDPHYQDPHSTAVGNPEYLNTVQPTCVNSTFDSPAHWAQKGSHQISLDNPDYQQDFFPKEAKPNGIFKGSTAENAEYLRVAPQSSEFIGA

MST2 = MST2 (Homo sapiens, UniProt Q13188); experiment: biochemical; settings: read-out: %Ctrl @ 2000nM
[3] = target: RPS6KA4(Kin.Dom.2-C-terminal) (Homo sapiens, UniProt O75676); experiment: biochemical; settings: read-out: %Ctrl @ 2000nM
RPS6KA4(Kin.Dom.2-C-terminal), sequence (O75676 372-772 limits assumed): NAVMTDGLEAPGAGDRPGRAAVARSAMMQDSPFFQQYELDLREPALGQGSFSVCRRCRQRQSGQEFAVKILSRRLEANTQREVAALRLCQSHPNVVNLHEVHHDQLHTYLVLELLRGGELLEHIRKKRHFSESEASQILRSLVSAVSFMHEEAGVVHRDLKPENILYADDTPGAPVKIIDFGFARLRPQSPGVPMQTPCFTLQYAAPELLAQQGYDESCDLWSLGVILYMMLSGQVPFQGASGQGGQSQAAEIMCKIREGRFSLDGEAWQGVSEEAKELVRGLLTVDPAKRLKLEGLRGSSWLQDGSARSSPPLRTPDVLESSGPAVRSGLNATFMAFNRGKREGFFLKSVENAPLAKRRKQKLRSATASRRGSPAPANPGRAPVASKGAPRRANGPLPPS

PAK6 = PAK6 (Homo sapiens, UniProt Q9NQU5); experiment: biochemical; settings: read-out: %Ctrl @ 2000nM
PAK6, sequence (Q9NQU5 whole entry): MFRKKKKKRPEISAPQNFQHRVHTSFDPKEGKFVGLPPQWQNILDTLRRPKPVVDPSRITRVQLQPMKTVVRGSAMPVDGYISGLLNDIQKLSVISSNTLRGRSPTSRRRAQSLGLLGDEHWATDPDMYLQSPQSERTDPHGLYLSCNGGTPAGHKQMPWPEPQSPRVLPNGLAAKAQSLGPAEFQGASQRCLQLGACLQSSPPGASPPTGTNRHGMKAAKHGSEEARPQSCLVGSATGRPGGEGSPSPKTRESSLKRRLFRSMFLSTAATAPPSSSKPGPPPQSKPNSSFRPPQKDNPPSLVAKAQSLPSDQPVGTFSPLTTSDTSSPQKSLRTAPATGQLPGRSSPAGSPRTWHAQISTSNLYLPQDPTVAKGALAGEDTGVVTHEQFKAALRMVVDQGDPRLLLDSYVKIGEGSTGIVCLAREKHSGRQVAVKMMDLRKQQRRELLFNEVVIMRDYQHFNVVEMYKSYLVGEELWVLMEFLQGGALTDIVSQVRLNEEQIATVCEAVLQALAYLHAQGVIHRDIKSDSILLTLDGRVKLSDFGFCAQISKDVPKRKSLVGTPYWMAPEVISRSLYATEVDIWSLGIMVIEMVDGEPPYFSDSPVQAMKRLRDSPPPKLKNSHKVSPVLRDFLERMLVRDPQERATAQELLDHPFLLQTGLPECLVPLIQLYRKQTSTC

LTK = LTK (Homo sapiens, UniProt P29376); experiment: biochemical; settings: read-out: %Ctrl @ 2000nM
TSSK3 = TSSK3 (Homo sapiens, UniProt Q96PN8); experiment: biochemical; settings: read-out: %Ctrl @ 2000nM
FLT3-autoinhibited = FLT3-autoinhibited (Homo sapiens, UniProt P36888); experiment: biochemical; settings: read-out: %Ctrl @ 2000nM
FLT3-autoinhibited, sequence (P36888 564-993 limits assumed): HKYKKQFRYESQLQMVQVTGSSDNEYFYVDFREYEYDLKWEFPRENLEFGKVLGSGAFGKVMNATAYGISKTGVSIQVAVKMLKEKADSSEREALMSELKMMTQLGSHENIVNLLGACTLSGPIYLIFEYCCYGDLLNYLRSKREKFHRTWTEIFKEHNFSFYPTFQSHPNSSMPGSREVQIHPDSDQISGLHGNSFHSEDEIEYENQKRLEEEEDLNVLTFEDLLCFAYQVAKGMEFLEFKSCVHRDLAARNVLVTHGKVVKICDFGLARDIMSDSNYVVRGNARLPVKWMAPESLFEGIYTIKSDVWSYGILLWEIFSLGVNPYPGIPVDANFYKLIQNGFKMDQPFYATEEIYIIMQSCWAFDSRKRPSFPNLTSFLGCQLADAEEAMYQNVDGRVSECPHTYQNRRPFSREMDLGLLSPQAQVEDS

CAMKK2 = CAMKK2 (Homo sapiens, UniProt Q96RR4); experiment: biochemical; settings: read-out: %Ctrl @ 2000nM
BUB1 = BUB1 (Homo sapiens, UniProt O43683); experiment: biochemical; settings: read-out: %Ctrl @ 2000nM
BUB1, sequence (O43683 whole entry): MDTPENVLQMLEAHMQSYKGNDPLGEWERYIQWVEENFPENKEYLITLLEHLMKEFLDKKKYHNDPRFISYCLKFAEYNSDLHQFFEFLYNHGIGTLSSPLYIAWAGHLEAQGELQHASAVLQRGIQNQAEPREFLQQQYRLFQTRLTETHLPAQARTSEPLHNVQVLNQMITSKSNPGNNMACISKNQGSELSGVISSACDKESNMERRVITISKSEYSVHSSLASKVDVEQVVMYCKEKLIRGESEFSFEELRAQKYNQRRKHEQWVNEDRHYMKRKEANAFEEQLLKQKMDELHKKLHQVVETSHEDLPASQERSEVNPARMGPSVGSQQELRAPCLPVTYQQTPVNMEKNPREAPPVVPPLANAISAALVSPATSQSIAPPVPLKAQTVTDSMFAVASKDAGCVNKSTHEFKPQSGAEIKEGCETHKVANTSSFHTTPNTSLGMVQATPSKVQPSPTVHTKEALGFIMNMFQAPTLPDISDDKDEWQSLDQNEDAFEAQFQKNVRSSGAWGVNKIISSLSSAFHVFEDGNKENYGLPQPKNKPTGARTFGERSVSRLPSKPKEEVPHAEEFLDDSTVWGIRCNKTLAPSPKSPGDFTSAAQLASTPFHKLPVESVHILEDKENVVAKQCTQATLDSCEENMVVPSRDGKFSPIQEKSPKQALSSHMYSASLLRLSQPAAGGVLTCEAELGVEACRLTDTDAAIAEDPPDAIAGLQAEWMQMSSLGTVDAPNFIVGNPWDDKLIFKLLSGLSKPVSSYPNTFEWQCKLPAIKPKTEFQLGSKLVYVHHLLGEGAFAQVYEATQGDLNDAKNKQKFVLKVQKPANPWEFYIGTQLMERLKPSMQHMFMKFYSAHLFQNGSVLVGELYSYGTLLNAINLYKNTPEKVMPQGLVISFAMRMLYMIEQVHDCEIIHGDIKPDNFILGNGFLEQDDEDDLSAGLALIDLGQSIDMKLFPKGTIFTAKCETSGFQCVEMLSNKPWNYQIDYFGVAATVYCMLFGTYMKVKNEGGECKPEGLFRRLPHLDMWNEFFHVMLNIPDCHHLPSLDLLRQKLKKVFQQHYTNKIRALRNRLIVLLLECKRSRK

AKT2 = AKT2 (Homo sapiens, UniProt P31751); experiment: biochemical; settings: read-out: %Ctrl @ 2000nM
FLT1 = FLT1 (Homo sapiens, UniProt P17948); experiment: biochemical; settings: read-out: %Ctrl @ 2000nM
BRSK1 = BRSK1 (Homo sapiens, UniProt Q8TDC3); experiment: biochemical; settings: read-out: %Ctrl @ 2000nM
PRKCQ = PRKCQ (Homo sapiens, UniProt Q04759); experiment: biochemical; settings: read-out: %Ctrl @ 2000nM
STK16 = STK16 (Homo sapiens, UniProt O75716); experiment: biochemical; settings: read-out: %Ctrl @ 2000nM
STK16, sequence (O75716 whole entry): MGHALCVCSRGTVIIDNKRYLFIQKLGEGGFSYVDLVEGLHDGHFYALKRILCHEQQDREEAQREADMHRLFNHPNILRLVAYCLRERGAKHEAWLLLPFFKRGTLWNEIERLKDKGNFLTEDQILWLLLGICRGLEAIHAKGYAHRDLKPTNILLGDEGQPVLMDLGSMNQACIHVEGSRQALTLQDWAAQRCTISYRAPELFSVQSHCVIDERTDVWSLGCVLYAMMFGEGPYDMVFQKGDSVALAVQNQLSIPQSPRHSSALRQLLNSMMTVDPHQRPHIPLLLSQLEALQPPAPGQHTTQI

CSNK1D = CSNK1D (Homo sapiens, UniProt P48730); experiment: biochemical; settings: read-out: %Ctrl @ 2000nM
PCTK1 = PCTK1 (Homo sapiens, UniProt Q00536); experiment: biochemical; settings: read-out: %Ctrl @ 2000nM

In the case of `CC(C)COC(=O)c1[nH]c2ccc(F)cc2c1-c1cn(CC2CCN(CCNS(=O)(=O)c3ccc(CC(C)C)cc3)CC2)nn1` [AB668, isobutyl 5-fluoro-3-(1-((1-(2-((4-isobutylphenyl)sulfonamido)ethyl)piperidin-4-yl)methyl)-1H-1,2,3-triazol-4-yl)-1H-indole-2-carboxylate], the remaining activity at 2 µM (EGFR(L858R,T790M)) is reported as 83%, the remaining activity at 2 µM (TNK2) is reported as 100% and the IC50 [1] is reported as greater than 100 µM. For the same compound, the remaining activity at 2 µM (PKN2) was 85%, the remaining activity at 2 µM [2] was 88% and the remaining activity at 2 µM (TAOK2) was 100%. It also gave a remaining activity at 2 µM (PLK4) of 94%, a remaining activity at 2 µM (WNK1) of 100% and a remaining activity at 2 µM (PLK3) of 93%. It also gave a remaining activity at 2 µM (MET(M1250T)) of 90%, a remaining activity at 2 µM (EGFR(L858R)) of 96% and a remaining activity at 2 µM (MST2) of 97%. It also gave a remaining activity at 2 µM [3] of 97%, a remaining activity at 2 µM (PAK6) of 90% and a remaining activity at 2 µM (LTK) of 94%. For the same compound, the remaining activity at 2 µM (TSSK3) was 98%, the remaining activity at 2 µM (FLT3-autoinhibited) was 100% and the remaining activity at 2 µM (CAMKK2) was 81%. The remaining activity at 2 µM (BUB1) was 94%, the remaining activity at 2 µM (AKT2) was 97% and the remaining activity at 2 µM (FLT1) was 85%. For the same compound, the remaining activity at 2 µM (BRSK1) was 78%, the “%Ctrl @ 2000nM” value (FLT3(ITD)) was 93% and the remaining activity at 2 µM (PRKCQ) was 87%. For the same compound, the remaining activity at 2 µM (STK16) was 82%, the remaining activity at 2 µM (CSNK1D) was 89% and the remaining activity at 2 µM (PCTK1) was 94%.
